32 compounds from patent US11034692B1 (Genentech, Inc., priority 2017, dated 2021) can be followed below.

For the first assay, the target named is HPK1 (Homo sapiens, UniProt Q92918). Kind of assay: HPK1 Lantha Binding Assay ("Lanth"). To be noted: Table B1-1, read-out: HPK1 Ki (μM) (Lanth). The procedure, abridged: (§1)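 Compounds in an 11-point 5-fold series were preincubated 1 h at 23 C with 2 nM kinase plus 2 nM Eu-anti-GST antibody. Then 15 nM Tracer222 was added for another hour, and time-resolved FRET was read at 665/615 nm. Ki values come from a Morrison tight-binding model that uses the tracer Kd.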
Sequence of HPK1 (Homo sapiens, UniProt Q92918) (Q92918 whole entry, looked up): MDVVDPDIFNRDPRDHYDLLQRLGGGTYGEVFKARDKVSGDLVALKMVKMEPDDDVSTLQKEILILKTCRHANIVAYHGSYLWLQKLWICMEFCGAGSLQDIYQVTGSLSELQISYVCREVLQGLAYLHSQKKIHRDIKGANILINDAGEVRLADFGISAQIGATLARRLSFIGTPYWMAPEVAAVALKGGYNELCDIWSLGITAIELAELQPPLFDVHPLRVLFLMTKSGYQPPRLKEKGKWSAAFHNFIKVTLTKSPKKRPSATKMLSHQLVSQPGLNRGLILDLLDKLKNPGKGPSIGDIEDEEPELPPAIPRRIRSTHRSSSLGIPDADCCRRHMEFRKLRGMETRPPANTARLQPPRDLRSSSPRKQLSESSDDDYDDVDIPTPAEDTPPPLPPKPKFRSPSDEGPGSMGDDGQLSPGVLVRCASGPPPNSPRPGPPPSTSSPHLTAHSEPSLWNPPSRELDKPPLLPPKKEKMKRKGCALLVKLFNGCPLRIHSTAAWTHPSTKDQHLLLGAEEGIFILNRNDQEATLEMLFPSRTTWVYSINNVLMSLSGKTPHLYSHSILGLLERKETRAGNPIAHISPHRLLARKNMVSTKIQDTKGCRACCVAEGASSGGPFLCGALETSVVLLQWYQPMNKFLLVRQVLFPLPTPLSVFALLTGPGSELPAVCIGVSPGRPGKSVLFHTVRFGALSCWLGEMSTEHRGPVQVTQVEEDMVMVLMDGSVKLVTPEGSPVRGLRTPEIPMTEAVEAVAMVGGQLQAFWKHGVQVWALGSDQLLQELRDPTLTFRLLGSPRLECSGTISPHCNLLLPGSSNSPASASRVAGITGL
On to `Cc1cc(N2CCC(N)C2)ncc1-c1cc2cc(NC(=O)C3CC3F)ncc2c(N)n1` (racemic) [Compound 179, (±)-cis-N-[8-amino-6-[6-[(3S)-3-aminopyrrolidin-1-yl]-4-methyl-3-pyridyl]-2,7-naphthyridin-3-yl]-2-fluoro-cyclopropanecarboxamide], for which the Ki came out at 2.9 nM.

As for `Cc1ccncc1-c1cc2cc(Nc3cc(C(C)O)n(C)n3)ncc2c(N)n1` (racemic) [Compound 221, (+/−)-1-(3-(8-amino-6-(4-methylpyridin-3-yl)-2,7-naphthyridin-3-ylamino)-1-methyl-1H-pyrazol-5-yl)ethanol], the Ki was determined as 0.026 nM.

`Cc1ccncc1-c1cc2cc(NC(=O)[C@@H]3C[C@H]3c3cn[nH]c3)ncc2c(N)n1` (racemic) [Compound 122, (±)-trans-N-[8-amino-6-(4-methyl-3-pyridyl)-2,7-naphthyridin-3-yl]-2-(1H-pyrazol-4-yl)cyclopropanecarboxamide]: the Ki worked out at 0.0629 nM.

Take `CNC(=O)c1c(C)c(-c2cc3cc(NC(=O)[C@H]4C[C@@H]4C#N)ncc3c(N)n2)c(C)n1C` (racemic) [Compound 180, (±)-trans-4-[1-amino-6-[[trans-2-cyanocyclopropanecarbonyl]amino]-2,7-naphthyridin-3-yl]-N,1,3,5-tetramethyl-pyrrole-2-carboxamide]: the inhibition constant (Ki) stood at 44 nM.

Take `Cc1ccncc1-c1cc2cc(NC(=O)[C@@H]3C[C@H]3F)ncc2c(N)n1` (racemic) [Compound 51, (±)-trans-N-(8-amino-6-(4-methylpyridin-3-yl)-2,7-naphthyridin-3-yl)-2-fluorocyclopropanecarboxamide]: the inhibition constant (Ki) is 1.3 nM.

For the next assay, the target named is HPK1. As to the kind of experiment: HPK1 Lantha Binding Assay ("Lanth"). To be noted: Table B1-1, read-out: HPK1 Ki (μM) (Lanth). The procedure, abridged:
as §1
As for `Cc1ccncc1-c1cc2cc(NC(=O)C(C)(C)C#N)ncc2c(N)n1` [Compound 35, N-(8-amino-6-(4-methylpyridin-3-yl)-2,7-naphthyridin-3-yl)-2-cyano-2-methylpropanamide], the Ki came out at 5540 nM.

In the case of `CCc1ccncc1-c1cc2cc(NC(=O)c3cnn(C)c3)ncc2c(N)n1` [Compound 73, 1-Methyl-1H-pyrazole-4-carboxylic acid [8-amino-6-(4-ethylpyridin-3-yl)-[2,7]naphthyridin-3-yl]amide], the Ki worked out at 13.4 nM.

On to `Cn1cc([C@H]2C[C@@H]2C(=O)Nc2cc3cc(-c4cnccc4CCO)nc(N)c3cn2)cn1` [Compound 215, (1S,2S)—N-(8-amino-6-(4-(2-hydroxyethyl)pyridin-3-yl)-2,7-naphthyridin-3-yl)-2-(1-methyl-1H-pyrazol-4-yl)cyclopropanecarboxamide], for which the Ki was 1.19 nM.

On to `CCc1ccncc1-c1cc2cc(NC(=O)NCc3cncs3)ncc2c(N)n1` [Compound 30, 1-[8-amino-6-(4-ethyl-3-pyridyl)-2,7-naphthyridin-3-yl]-3-(thiazol-5-ylmethyl)urea], for which the Ki amounted to 1.75 nM.

With `CCc1ccncc1-c1cc2cc(NC(=O)CCC#N)ncc2c(N)n1` [Compound 28, N-[8-amino-6-(4-ethyl-3-pyridyl)-2,7-naphthyridin-3-yl]-3-cyano-propanamide], the Ki is 14.9 nM.

On to `Cc1ccncc1-c1cc2cc(NC(=O)[C@@H]3CC[C@@H]3C)ncc2c(N)n1` [Compound 323, (1R,2S)—N-(8-amino-6-(4-methylpyridin-3-yl)-2,7-naphthyridin-3-yl)-2-methylcyclobutanecarboxamide], for which the inhibition constant (Ki) stood at 76.3 nM.

Take `COc1ccc(C)c(-c2cc3cc(NC(=O)[C@H]4C[C@@H]4c4cnn(C)c4)ncc3c(N)n2)c1` [Compound 288, (1S,2S)—N-[8-amino-6-(5-methoxy-2-methylphenyl)-2,7-naphthyridin-3-yl]-2-(1-methyl-1H-pyrazol-4-yl)cyclopropane-1-carboxamide]: the inhibition constant Ki came out at 6.19 nM.

`COCCN1C[C@@H]2[C@H](C1)[C@H]2C(=O)Nc1cc2cc(-c3cnccc3C)nc(N)c2cn1` [Compound 124, exo-N-[8-amino-6-(4-methyl-3-pyridyl)-2,7-naphthyridin-3-yl]-3-(2-methoxyethyl)-3-azabicyclo[3.1.0]hexane-6-carboxamide]: the inhibition constant Ki worked out at 1.1 nM.

For the compound `Cc1ncncc1-c1cc2cc(NC(=O)[C@@H]3C[C@@H]3F)ncc2c(N)n1` [Compound 12, (1S,2S)—N-(8-amino-6-(4-methylpyrimidin-5-yl)-2,7-naphthyridin-3-yl)-2-fluorocyclopropanecarboxamide], the inhibition constant Ki is 49.3 nM.

`Cc1cc(-c2ncco2)ncc1-c1cc2cc(NC(=O)[C@@H]3C[C@H]3c3cnn(C)c3)ncc2c(N)n1` [Compound 309, (1R,2R)—N-[8-amino-6-[4-methyl-6-(1,3-oxazol-2-yl)pyridin-3-yl]-2,7-naphthyridin-3-yl]-2-(1-methyl-1H-pyrazol-4-yl)cyclopropane-1-carboxamide]: the Ki worked out at 0.184 nM.

Take `Cc1cc(-c2ccccc2)ncc1-c1cc2cc(NC(=O)[C@@H]3C[C@H]3CC#N)ncc2c(N)n1` [Compound 334, (1R,2S)—N-[8-amino-6-(4-methyl-6-phenylpyridin-3-yl)-2,7-naphthyridin-3-yl]-2-(cyanomethyl)cyclopropane-1-carboxamide]: the Ki came out at 20.4 nM.

With `Cc1ccncc1-c1cc2cc(Nc3cnn([C@H]4CCCN(C)C4=O)c3)ncc2c(N)n1` [Compound 252, (3S)-3-(4-[[8-amino-6-(4-methylpyridin-3-yl)-2,7-naphthyridin-3-yl]amino]-1H-pyrazol-1-yl)-1-methylpiperidin-2-one], the Ki was determined as 0.569 nM.

`CNC(=O)C(C)(C)n1cc(Nc2cc3cc(-c4cnccc4C)nc(N)c3cn2)cn1` [Compound 182, 2-[4-[[8-amino-6-(4-methyl-3-pyridyl)-2,7-naphthyridin-3-yl]amino]pyrazol-1-yl]-N,2-dimethyl-propanamide]: the Ki worked out at 1.2 nM.

Regarding `N#C[C@H]1C[C@@H]1C(=O)Nc1cc2cc(-c3cnccc3-c3cc[nH]n3)nc(N)c2cn1` [Compound 244, (1S,2S)—N-(6-(4-(1H-pyrazol-3-yl)pyridin-3-yl)-8-amino-2,7-naphthyridin-3-yl)-2-cyanocyclopropanecarboxamide], the inhibitory constant (Ki) came out at 3.56 nM.

On to `CCc1ccncc1-c1cc2cc(NC(=O)NC(C)C)ncc2c(N)n1` [Compound 31, 1-[8-amino-6-(4-ethyl-3-pyridyl)-2,7-naphthyridin-3-yl]-3-isopropyl-urea], for which the Ki was 3.9 nM.

Turning to `Cc1ccncc1-c1nc(N)c2cnc(NC(=O)[C@H]3C[C@@H]3c3cnn(C)c3)cc2c1Cl` [Compound 233, (1S,2S)—N-(8-amino-5-chloro-6-(4-methylpyridin-3-yl)-2,7-naphthyridin-3-yl)-2-(1-methyl-1H-pyrazol-4-yl)cyclopropanecarboxamide], the Ki is 0.694 nM.

In the case of `CCc1ccncc1-c1cc2cc(NC(=O)Cc3ccn[nH]3)ncc2c(N)n1` [Compound 102, N-(8-amino-6-(4-ethylpyridin-3-yl)-2,7-naphthyridin-3-yl)-2-(1H-pyrazol-5-yl)acetamide], the Ki came out at 21.5 nM.

On to `Cc1c(F)cncc1-c1cc2cc(NC(=O)[C@@H]3C[C@@H]3F)ncc2c(N)n1` [Compound 17, (1S,2S)—N-(8-amino-6-(5-fluoro-4-methylpyridin-3-yl)-2,7-naphthyridin-3-yl)-2-fluorocyclopropanecarboxamide], for which the inhibitory constant (Ki) stood at 16.1 nM.

`Cc1ccncc1-c1cc2cc(NC(=O)C3CC3(F)F)ncc2c(N)n1` (centres unmarked) [Compound 11, N-(8-amino-6-(4-methylpyridin-3-yl)-2,7-naphthyridin-3-yl)-2,2-difluorocyclopropanecarboxamide]: the Ki was 3.65 nM.

As for `Cc1ccncc1-c1cc2cc(NC(=O)[C@@H]3C[C@H]3CC#N)ncc2c(N)n1` [Compound 194, (1R,2S)—N-(8-amino-6-(4-methylpyridin-3-yl)-2,7-naphthyridin-3-yl)-2-(cyanomethyl)cyclopropane-1-carboxamide], the Ki came to 0.967 nM.

As to `C[C@H]1COC(=O)N1c1cc2cc(NC(=O)[C@@H]3C[C@H]3C#N)ncc2c(N)n1` [Compound 186, trans-N-(8-amino-6-((S)-4-methyl-2-oxooxazolidin-3-yl)-2,7-naphthyridin-3-yl)-2-cyanocyclopropanecarboxamide], the Ki turned out to be 4 nM.

As for `Cc1ccncc1-c1cc2cc(Nc3cnn(CCO)c3)ncc2c(N)n1` [Compound 169, 2-[4-[[8-amino-6-(4-methyl-3-pyridyl)-2,7-naphthyridin-3-yl]amino]pyrazol-1-yl]ethanol], the inhibitory constant (Ki) stood at 0.48 nM.

With `CCc1ccncc1-c1cc2cc(NC(=O)C3CC3)ncc2c(N)n1` [Compound 26, N-(8-amino-6-(4-ethylpyridin-3-yl)-2,7-naphthyridin-3-yl)cyclopropanecarboxamide], the inhibition constant (Ki) stood at 0.21 nM.

In the case of `N#C[C@H]1C[C@@H]1C(=O)Nc1cc2cc(-c3cnccc3-c3cn[nH]c3)nc(N)c2cn1` [Compound 236, (1S,2S)—N-(6-(4-(1H-pyrazol-4-yl)pyridin-3-yl)-8-amino-2,7-naphthyridin-3-yl)-2-cyanocyclopropanecarboxamide], the inhibitory constant (Ki) worked out at 23.3 nM.

In the case of `Cc1ccncc1-c1nc(N)c2cnc(NC(=O)[C@@H]3C[C@H]3CC#N)cc2c1Cl` [Compound 269, (1R,2S)—N-[8-amino-5-chloro-6-(4-methylpyridin-3-yl)-2,7-naphthyridin-3-yl]-2-(cyanomethyl)cyclopropane-1-carboxamide], the inhibition constant Ki is 2.3 nM.

With `Cc1ccncc1-c1cc2cc(NC(=O)[C@@H]3C[C@@H]3F)ncc2c(N)n1` [Compound 6, (1S,2S)—N-(8-amino-6-(4-methylpyridin-3-yl)-2,7-naphthyridin-3-yl)-2-fluorocyclopropanecarboxamide], the Ki was found to be 0.793 nM.

Staying with this assay, now noted: Table B1-2, read-out: HPK1 Ki, L = Lanth.
For `Cc1cccc(F)c1-c1cc2cc(Nc3cc4n(n3)CC(=O)N(C)CC4)ncc2c(N)n1` [Compound 426, 2-((8-amino-6-(2-fluoro-6-methylphenyl)-2,7-naphthyridin-3-yl)amino)-6-methyl-5,6-dihydro-4H-pyrazolo[1,5-d][1,4]diazepin-7(8H)-one], the inhibition constant Ki turned out to be 0.02 nM.

Broadly, the Ki is a dissociation constant, usually derived from enzyme kinetics or from competition with a known ligand.
